{"source": "paper PMC6497424", "about": "(ACS Catalysis, 2019)", "key": {"[1]": {"target": "T1, PtHmfF (P. thermopropionicum HmfF) (Pelotomaculum thermopropionicum, UniProt A5D4Z9)", "T1 construct": "gene UbiD; codon-optimised, full length; pET30a C-terminal His-tag from E. coli BL21(DE3), coexpressed with E. coli UbiX; untagged (pET21b) for crystals; hexamer (D3); The eightfold dimer variant is in pET28a (His-tag)", "assay": "X-ray crystal structure, […] Å, FMN soak", "assay_type": "binding", "settings": "K+ and Mn2+ present; stable analogue in prFMN site; untagged enzyme"}, "[2]": {"target": "T2, PtHmfF (P. thermopropionicum HmfF) (Pelotomaculum thermopropionicum, UniProt A5D4Z9, A315N/N348R/F351D/T355N/A388P/F393T/V395F/M399R)", "T2 construct": "gene UbiD; codon-optimised, full length; pET30a C-terminal His-tag from E. coli BL21(DE3), coexpressed with E. coli UbiX; untagged (pET21b) for crystals; hexamer (D3); The eightfold dimer variant is in pET28a (His-tag)", "assay": "X-ray crystal structure, […] Å", "assay_type": "binding", "settings": "dimer variant; cofactor copurified from UbiX coexpression"}, "[3]": {"target": "T1, PtHmfF (P. thermopropionicum HmfF)", "assay": "in vitro reconstitution of apo-enzyme; UV-vis spectra and activity", "assay_type": "biochemical", "settings": "reduced prFMN added anaerobically, then oxidative maturation in air; FDCA 900 μM, 25 °C"}, "[4]": {"target": "Pelotomaculum thermopropionicum 2,5-furandicarboxylic acid decarboxylase (HmfF), wild type, untagged (Pelotomaculum thermopropionicum)", "assay": "crystal structure; untagged PtHmfF, space group P21, crystals soaked with FMN in the presence of K+ and Mn2+, data to 2.7 Å, six monomers in the asymmetric unit; solved by Se-Met SAD"}, "[5]": {"target": "Pelotomaculum thermopropionicum HmfF dimer variant (A315N, N348R, F351D, T355N, A388P, F393T, V395F, M399R) (Pelotomaculum thermopropionicum)", "assay": "SEC-MALS; 25 °C; 500 μL of 1.5 mg/mL protein on Superdex 200 10/300GL; 200 mM KCl, 1 mM MnCl2, 50 mM Tris pH 7.5; 0.75 mL/min"}, "[6]": {"target": "Pelotomaculum thermopropionicum HmfF dimer variant (A315N, N348R, F351D, T355N, A388P, F393T, V395F, M399R) (Pelotomaculum thermopropionicum)", "assay": "crystal structure; PtHmfF dimer variant with prFMN, crystals grown at 4 °C, 2.3 Å, molecular replacement with the WT monomer; two monomers in the asymmetric unit"}}}
{"compound": "Cc1cc2nc3c(=O)[nH]c(=O)nc-3n(C[C@H](O)[C@H](O)[C@H](O)COP(=O)(O)O)c2cc1C", "note": "[FMN]", "values": [{"measurement": "X-ray crystal structure, 2.7 Å, FMN soak", "setting": "[1]", "result": "revealing clear electron density for both the FMN and the associated metal ions"}]}
{"compound": "Cc1cc2c3c(c1C)C(C)(C)CC=[N+]3c1c([nH]c(=O)[nH]c1=O)N2C[C@H](O)[C@H](O)[C@H](O)COP(=O)(O)O", "note": "[prFMN]", "values": [{"measurement": "X-ray crystal structure, 2.3 Å", "setting": "[2]", "result": "the dimer variant crystals contain prFMN in the active site"}, {"measurement": "in vitro reconstitution of apo-enzyme; UV-vis spectra and activity", "setting": "[3]", "result": "HmfF requires oxidative maturation of prFMN for activity"}]}
{"compound": "Pelotomaculum thermopropionicum 2,5-furandicarboxylic acid decarboxylase (HmfF), wild type, untagged (enzyme)", "values": [{"measurement": "stoichiometry N", "setting": "[4]", "result": 6}]}
{"compound": "Pelotomaculum thermopropionicum HmfF dimer variant (A315N, N348R, F351D, T355N, A388P, F393T, V395F, M399R) (enzyme)", "values": [{"measurement": "stoichiometry N", "setting": "[5]", "result": 2}, {"measurement": "stoichiometry N", "setting": "[6]", "result": 2}]}
